A value given as a limit tells only on which side of the number the result lay.

By melting point is commonly meant the temperature, or range, at which the solid turns liquid. Molecule `CC1CN(c2nnc(N3CC(C)OC(C)C3)c3cc(-c4ccccc4)ncc23)CC(C)O1` (stereo not given) returned a melting point of 248 to 250 °C.
The same measure for `COc1cccc(C(=NO)c2sccc2Br)c1`: 100 to 103 °C; for `CC(=C1SC(=O)NC1=O)c1ccc(S(=O)(=O)CCc2ccccc2)cc1`: 201 to 202 °C; for `O=C(OCc1ccccc1)C1=C(S(=O)c2ccccc2)CC2CC(=O)N12` (stereo not given): 129 to 131 °C.
`COc1cc(C(=O)c2ccccc2)c(O)c2c1C(C)(C)CCC2(C)C` yielded a melting point of 85 °C.
The same measure for `Cc1cc(C#N)cc(C(C#N)c2nc(OCc3ccccc3)nc(OCc3ccccc3)c2C(C)(C)C)c1` (stereo not given): 126 to 128 °C.
`CN1N=C(c2cccc(F)c2)c2cc(Cl)ccc2CS1(=O)=O` registered a melting point of 172 to 173 °C.
The figure for `CCCN(CCC)c1c([N+](=O)[O-])cc(C(C)=O)cc1[N+](=O)[O-]` is 71 to 72 °C; for `Cc1nc2c(O)c(C(=O)[C@H](O)[C@@H](O)c3ccccc3)ccc2n1C1CC1` it is 120 °C.
Regarding `Cc1cc(Br)cnc1CCCCNc1ncc(Cc2ccccc2)c(=O)[nH]1`, the melting point is 138 to 139 °C.
`Cc1c(NC(=O)c2ccc(-c3ccc(F)cc3)nc2)ccc2cc(CN3CCCC3)cnc12` showed a melting point of 207 to 209 °C.
The same measure for `CN=C(NC#N)NCCCSCc1nsc(NC(=N)N)n1`: 117 to 120 °C.
The same measure for `Cc1ccc2[nH]c3c(C(=O)O)cccc3c2c1Cl`: 305 °C.
The same measure for `Cc1nc(C)c(Cl)c(CNCc2ccc(Oc3ccc4ncc([N+](=O)[O-])n4n3)cn2)n1`: 183 to 184 °C; for `CC[C@H](Nn1c([C@H](C)OC)nnc1[C@H](C)OC)C(OC)OC`: 67 to 68 °C; for `c1csc(N=C2SC[C@@H]3Cc4ccccc4CN23)c1`: 112 °C.
`COC(=O)c1cccc2c1CN(c1c(F)cc3c(=O)c(C(=O)O)cn(-c4ccc(F)cc4)c3c1F)C2` had a melting point of 283 to 287 °C.
The same measure for `COc1cc2c(cc1OC)CCCC(C(=O)N1CCN(C(=O)c3cc(OC)c(OC)c(OC)c3)C(C(=O)N(C)C)C1)=C2` (stereo not given): 177 to 178 °C.
The same measure for `Cc1nc(COc2cc(N)c(Cl)cc2C(=O)O)cs1`: 188 to 189 °C; for `Cn1c(-c2n[nH]c(=O)[nH]2)nc2ccccc21`: 293 to 296 °C.
The figure for `c1ccc2oc(COc3ccc(CCCn4ccnc4)cc3)nc2c1` is 81 to 82 °C; for `CCOC(=O)C1=C(C)NC(C)=C(C(=O)OCCN2CCN(C(c3ccccc3)c3ccccc3)CC2)C1c1cccc(Cl)c1` (stereo not given) it is 72 to 75 °C.
Molecule `CCc1oc(C(O)(C(F)(F)F)C(F)(F)F)nc1-c1ccc(S(C)(=O)=O)cc1` gave a melting point of 92 to 93 °C.
The same measure for `COCc1cc(-c2nc(-c3cnc(N)c(C)c3)no2)ccc1-c1ccccc1F`: 162 to 164 °C; for `Cc1ccc(C(NC2CCNCC2)(Oc2ccc(OCc3ccccc3)cc2)C(C)O)nc1` (stereo not given): 123 to 125 °C; for `Nc1nc(-c2ccc(CCCCN3CCN(c4nsc5ccccc45)CC3)cc2)cs1`: 258 to 261 °C.
In turn, `Cc1ccccc1C(=O)Nc1ccc(-n2nc(C3CC3)cc2C2CC2)c(F)c1` yielded a melting point of 105 to 107 °C.
The same measure for `O=C(c1cccs1)c1cnn2c(-c3cccc([N+](=O)[O-])c3)ccnc12`: 199 to 201 °C; for `CNn1cc(C(=O)O)c(=O)c2cc(F)c(N3CCC(N)C3)c(F)c21` (stereo not given): 210 to 211 °C.
The figure for `c1ccc2c(c1)Cc1ccccc1N1CCNCC21` (stereo not given) is 128 to 130 °C; for `CCC(O)c1ccccc1-c1ccc(C(=O)N2Cc3ccc(C(=O)NCc4cccnc4)n3Cc3ccccc32)cc1` (stereo not given) it is 111 to 115 °C.
Molecule `CN(CC(=O)O)CC(=O)Nc1cc(Cc2n[nH]c(=O)c3ccccc23)ccc1F` gave a melting point of 194 to 198 °C.
As to `CSc1ccccc1CNC(=O)c1ccc2cnccc2n1`, the melting point fell in the range of 102 to 103 °C.
The same measure for `CCCCCCCC(=O)ON=C(c1ccccc1)c1cc(C(C)(C)C)c(O)c(C(C)(C)C)c1`: 76.3 to 77.2 °C; for `Cc1cc(C(C)(C)C)c(O)cc1[N+](=O)[O-]`: 96 to 98 °C; for `COc1cccc(C2c3ccccc3C(c3ccc4c(c3)OCO4)C2C(=O)O)c1` (stereo not given): 131 to 133 °C.
The same measure for `COc1cc(CO)ccc1OCc1nc(-c2cccc([N+](=O)[O-])c2)oc1C`: 134 to 135 °C; for `CCOc1c(/C=C\CO)cc(C(C)(C)C)cc1C(C)(C)C`: 93 to 94 °C; for `Cc1cc2c(cc1C)N(C)Cc1cscc1N2`: 121 to 125 °C.
The same measure for `COC(=O)C(C#N)c1ncc(Cl)cc1Cl` (stereo not given): 109 to 110 °C; for `CC(C)(C)OC(=O)Nc1ccc([N+](=O)[O-])cc1`: 112 to 114 °C; for `O=C1C(O)=C(c2ccccc2)CN1Cc1ccco1`: 222 to 226 °C.
In turn, `CCOC(=O)Nc1c(C)c(C)c2c(c1C)CC(C)(C)O2` gave a melting point of 102 to 104 °C.
The figure for `CON=C(C)C1=CCCN(O)C1` is 94 to 96 °C; for `CCCc1c(O)c(C(C)=O)cc(Cl)c1OCCCOc1ccc2ccc(OCC(=O)OC)cc2c1C(C)=O` it is 121 to 124 °C.
The same measure for `CN(NC(=O)c1ccccc1C(=O)O)C(=S)Nc1ccccc1`: 155 to 156 °C; for `N#CCOc1ccc2cc(-c3csc(-c4ccccc4)n3)ccc2c1Br`: 157 to 160 °C; for `O=C1c2ccccc2C(=O)N1OCc1cc(Cl)c2c(c1Cl)OC(c1ccccc1)(c1ccccc1)O2`: 127 to 129 °C.
The same measure for `NC(=O)c1ccc2c(c1)CCCN2CCN1CC=C(c2c[nH]c3cc(F)ccc23)CC1`: 130 to 133 °C; for `COc1nc(Cl)nc(NC#N)n1`: above 260 °C; for `Nc1ccc(CCC(=O)Nc2ccc(C(=O)c3ccccc3)cc2)cc1N`: 156 to 157 °C.
The molecule `Nc1nc(-c2ccccn2)cc2ccccc12` yielded a melting point of 152 to 153 °C.
The figure for `CC(=O)NCC1CN(c2ccc(N3CCN(C4N=NC(=O)S4)CC3)c(F)c2)C(=O)O1` (stereo not given) is 173 to 175 °C.
Consider `CCP(=O)(O)CCCN`, for which the melting point is 233 to 239 °C.
The same measure for `Cc1nc(C(F)(F)F)ccc1C(=O)c1c(S(C)=O)noc1C1CC1` (stereo not given): 96 to 97 °C; for `COc1ccc(-c2cc(=S)n(Cc3ccc(Cl)cc3Cl)nc2-c2ccc(OC)cc2)cc1`: 170 °C; for `COCCOCCn1cc(C(=O)NCc2ccc(Cl)cc2)c(=O)c2cc(CSC)ccc21`: 154 to 155 °C.
The figure for `CC(=O)CC(=O)NCC1(C)CC(NC(=O)CC(C)=O)CC(C)(C)C1` (stereo not given) is 144 to 147 °C; for `CC(=O)N1CCc2cc(-c3ccc4c(c3)CC[C@H]3N(C)C(=O)CC[C@]43C)ccc21` it is 197 to 200 °C; for `CN(C)CCc1cn(S(=O)(=O)c2ccccc2)c2ccc(O)cc12` it is 185 to 188 °C.
The figure for `COc1cc(C)c(C(C)O)cc1NC(=O)N1CCN(c2cc(C)cc(C)c2)CC1` (stereo not given) is 140 to 142 °C; for `Cc1ccc2c(c1)C(C(=O)Nc1c(Cl)cccc1Cl)c1ccccc1CO2` (stereo not given) it is 156 to 157 °C.
As to `O=C(c1ccco1)C1C(=O)N(C(=O)Nc2ccc(F)cc2F)c2ccccc21` (stereo not given), the melting point fell in the range of 191 to 192 °C.
The same measure for `CNC1([C@@H]2CCN(c3c(F)cc4c(=O)c(C(=O)O)cn([C@@H]5C[C@@H]5F)c4c3C)C2)CC1`: 211 to 212 °C.
The figure for `COC(=O)CNc1cccc(Cl)c1` is 75 to 76 °C; for `ClCc1ccccc1COc1ccc(C=Cc2ccc3ccccc3n2)cc1` it is 127 to 128 °C; for `CCCCOC(=O)N(C)S(=O)(=O)c1cc([N+](=O)[O-])c(N(CCC)CCC)c([N+](=O)[O-])c1` it is 99 to 101 °C.
The figure for `CCOC(=O)Cc1c(C)[nH]c(C(=O)c2ccccc2)c1C` is 126 to 129 °C.
Turning to `CCOC(=O)C1(C2c3[nH]c4ccc(Cl)cc4c3CCN2C(=O)c2ccno2)CCC1` (stereo not given), the melting point was 166 to 167 °C.
`OC(Cc1ncc[nH]1)(Cn1cncn1)c1ccc(Cl)cc1Cl` (stereo not given) registered a melting point of 168 to 170 °C.
For `CC(=O)N1CCc2sc(C(=O)CCCN3CCC(c4noc5cc(F)ccc45)CC3)cc2C1`, the melting point amounted to 235 °C.
The same measure for `N#Cc1c(N2CCN(C(=O)c3cccs3)CC2)c2sccc2n(Cc2ccc(F)cc2)c1=O`: 286 °C.
The figure for `O=C(Nc1ccc(-c2nc3ccccc3s2)cc1)C(Cl)Cl` is 223 to 225 °C; for `C[C@@H](NC(=NC#N)Nc1ccc(C#N)cc1)C(C)(C)C` it is 159 to 160 °C.
The same measure for `CCOc1ccc(Cc2cc([C@@H]3O[C@H](SC)[C@@H](O)[C@H](O)[C@H]3O)ccc2Cl)cc1`: 123 °C; for `CSc1ccc(C(=O)C=Cc2ccncc2)cc1`: 133 to 134 °C; for `O=C(OCc1ccccc1)C1CSC2C(N=Cc3ccc([N+](=O)[O-])cc3)C(=O)N12` (stereo not given): 95 to 96 °C.
As for `O=C1COc2ccc([N+](=O)[O-])cc2N1`, the melting point lay in the range of 221 to 223 °C.
The figure for `N=c1nc(Nc2ccccc2)nc2[nH]c3ccccc3n12` is above 300 °C; for `O=C(O)COc1ccc2c(-c3cc([N+](=O)[O-])ccc3F)noc2c1Cl` it is 238 to 240 °C.
The figure for `CCCCCCCCCCCCCCCCCCOc1ccc(OCc2ccccc2)c(C(=O)N(CC(=O)O)CC(=O)O)c1` is 81 to 83 °C; for `O=C(Nc1nc(C(F)(F)F)co1)C1c2ccccc2Oc2ccc(Cl)cc21` (racemic) it is 235 °C.
The figure for `CN(Cc1cccc2c1CN(C1CCC(=O)NC1=O)C2=O)C(=O)Nc1cccc(C(F)(F)F)c1` (stereo not given) is 198 to 200 °C; for `CN(C)CCCN1C(=O)C(NC(=O)Nc2ccccc2)C(=O)N(CC23CC4CC(CC(C4)C2)C3)c2ccccc21` (stereo not given) it is 138 to 140 °C; for `COc1ccc(C(=O)Oc2ccccc2)cc1Nc1ccccc1` it is 130 to 131 °C.
